Test results from patent US11628153B2, “Agent for preventing or amelioriting nocturia” (Kao Corporation, priority 2018, dated 2023).

System: Spontaneously Hypertensive Rats (SHRs)
Assay: Urination behavior recording in metabolic cages after 8 weeks of oral intake of rosmarinic acid-containing feed (urinary frequency, urine volume)
Type: in vivo, rat
Conditions: for Mean urinary frequency of rats during rest period / Mean urine volume of rats during rest period / Mean urinary frequency of rats during activity period / Mean urine volume of rats during activity period: 0.5 mass % rosmarinic acid feed, 8 weeks, mean ± standard error, n=12; for Significant difference in mean urinary frequency, treatment vs control group / Significant difference in mean urine volume, treatment vs control group: Student-t test
Description: For the test, Spontaneously Hypertensive Rats (SHRs, see American Journal of Physiology, 1998, vol. 275, p. R1279-1286 and Neurourology and Urodynamics, 2005, vol. 24, p. 295-300) (42-week-old, female, obtained from Japan SLC) were used. SHRs in the treatment group (n=12) ingested, for 8 weeks, a rosmarinic acid-containing feed (composition: 0.5 mass % rosmarinic acid (obtained from Carbosynth, Inc.), 66 mass % starch, 20 mass % casein, 5 mass % corn oil, 4 mass % cellulose, 3.5 mass % mineral, and 1 mass % vitamin). SHRs in the control group (n=12) ingested, for 8 weeks, a rosmarinic acid-free feed (composition: 66.5 mass % starch, 20 mass % casein, 5 mass % corn oil, 4 mass % cellulose, 3.5 mass % mineral, and 1 mass % vitamin). Then, their urination behavior was recorded in metabolic cages. Note that, before the recording in the metabolic cages, 4-day adaptation period was provided, and they were reared individually. The urination behavior recording (measurement of the urinary frequency and the urine volume) was carried out under conditions with free access to feed and water and under conditions with a 12/12-h light/dark cycle. The urine volume was weighed with an electronic balance while the urine was collected every urination. Note that a past report (see Neurourology and Urodynamics, 2017, vol. 36, p. 1034-1038) was consulted; the start time of a light period corresponding to a rest period of each rat was set to ZT0; the light period was divided into two periods of ZT0-6 and ZT6-12; and the urinary frequency during each period was defined as an indicator for nocturia. In addition, a dark period corresponding to an activity period was divided into two periods of ZT12-18 and ZT18-24; and the urinary frequency during each period was defined as an indicator for daytime frequent urination. […] The results were means±standard errors. To compare the inter-group means, Student-t test was used.

O=C(/C=C/c1ccc(O)c(O)c1)O[C@H](Cc1ccc(O)c(O)c1)C(=O)O [rosmarinic acid] was tested, and the “Mean urinary frequency of rats during rest period” value (ZT0-6 (rest period)) was 2.5 ± 0.2 times/6 h, the “Mean urine volume of rats during rest period” value (ZT0-6 (rest period)) was 1.7 ± 0.1 mL/6 h and the “Significant difference in mean urinary frequency, treatment vs control group” value (ZT0-6 (rest period)) was “N.S”. The “Significant difference in mean urine volume, treatment vs control group” value (ZT0-6 (rest period)) was “N.S”, the “Mean urinary frequency of rats during rest period” value (ZT6-12 (rest period)) was 2.4 ± 0.2 times/6 h and the “Mean urine volume of rats during rest period” value (ZT6-12 (rest period)) was 1.1 ± 0.1 mL/6 h. For the same molecule, the “Significant difference in mean urine volume, treatment vs control group” value (ZT6-12 (rest period)) was “N.S”, the “Mean urinary frequency of rats during activity period” value (ZT12-18 (activity period)) was 6.7 ± 1.1 times/6 h and the “Mean urine volume of rats during activity period” value (ZT12-18 (activity period)) was 2.4 ± 0.4 mL/6 h. For the same molecule, the “Significant difference in mean urinary frequency, treatment vs control group” value (ZT12-18 (activity period)) was “N.S”, the “Significant difference in mean urine volume, treatment vs control group” value (ZT12-18 (activity period)) was “N.S” and the “Mean urinary frequency of rats during activity period” value (ZT18-24 (activity period)) was 6.0 ± 0.7 times/6 h. For the same molecule, the “Mean urine volume of rats during activity period” value (ZT18-24 (activity period)) was 2.4 ± 0.2 mL/6 h, the “Significant difference in mean urinary frequency, treatment vs control group” value (ZT18-24 (activity period)) was “N.S” and the “Significant difference in mean urine volume, treatment vs control group” value (ZT18-24 (activity period)) was “N.S”. The “Significant difference in the mean urine volume during each time zone, treatment vs control group” value (all time zones (ZT0-24)) was “undetected”.
